Reference: patent US10633416B2 (BGI SHENZHEN CO., LIMITED, priority 2014, dated 2020)

System: potassium ion channel current of the DRG neurons
Assay type: cell-based, SD rats
Conditions: 5 mM

Nc1ccncc1 [4AP, 4-aminopyridine]
Current inhibition rate: 0.338
Current recorded after loading: 0.9766 nA
